Measured values published in patent publication US20240270753A1, “HETEROCYCLIC COMPOUND FOR INHIBITING SHP2 ACTIVITY, PREPARATION METHOD THEREFOR AND USE THEREOF” (SHANGHAI INSTITUTE OF MATERIA MEDICA, CHINESE ACADEMY OF …, priority 2021, published 2024).

Key:
[1] = system: MV4-11 cells; assay: MV4-11 cell proliferation inhibition assay (MTS); assay type: cell-based; conditions: MTS read on the third day
Experimental: (a) SHP099 and TNO155 were used as positive controls.
(b) MV4-11 cells (10,000 cells/well) were seeded in a 96-well culture plate with 100 μL/well of the culture medium (IMDM supplemented with 10% fetal bovine serum (FBS), from Gibco company), and cultured for 6 hours. The compounds formulated in different concentrations of the present invention were added. On the third day, 20 μL of MTS reagent (purchased from Promega Company) was added to each well, and the absorbance value was detected according to the reagent instructions (Promega Company). The IC50 of the inhibitory activity of the compounds of the present invention against the MV4-11 cell proliferation is shown in Table 2.

[2] = system: p-ERK 1/2 (Thr202/Tyr204) in MIAPaca-2 cells; assay: Cell protein kinase (p-ERK) phosphorylation inhibition, AlphaLISA; assay type: cell-based; conditions: treated for 2 hours
Experimental: The inhibition of the phosphorylation level of intracellular protein kinase (ERK) by a compound was detected by AlphaLISA method. The first step was to treat the cells with the compound. The compound to be tested was first diluted 5-fold with 100% DMSO, and a gradient including a total of 9 different concentrations was set; then MIAPaca-2 cells were inoculated into a 96-well plate at a density of 40,000 cells per well, with a volume of 80 μL per well; then 20 μL of DMSO or the compound to be tested with different concentrations was added to each well, with 2 replicates for each concentration, and the final concentration of DMSO was controlled at 0.5%. The second step was to lyse the cells. After the cells were treated for 2 hours, the culture medium was removed, and the cells were washed three times with a HBSS solution. 50 μL of a freshly prepared lysis buffer was added to each well, shaken, and left at room temperature for 10 minutes. […] 10 μL of the above lysate was put into a 384-well plate (Perkin Elmer, 6005350), and the phosphorylation level of the extracellular signal-regulated kinase in the sample was detected according to the manufacturer's instructions. Signals were read using the AlphaScreen detector on an Envision multifunctional microplate reader (PerkinElmer). The inhibition (%) was calculated by the following equation: […]

| SMILES | IC50 [1] [µM] | IC50 [2] [µM] |
| --- | --- | --- |
| CC1(N)CCN(c2cnc(-c3cccc(Cl)c3Cl)c(N)n2)CC1 [SHP099] | 0.883 ± 0.105 |  |
| C[C@@H]1OCC2(CCN(c3cnc(Sc4ccnc(N)c4Cl)c(N)n3)CC2)[C@@H]1N [TNO155] | 0.118 ± 0.0058 | 0.03 |
